Reference: PMC3150407, “Differential Inhibitor Sensitivity between Human Kinases VRK1 and VRK2” (PLoS ONE, 2011)
Read-outs that look alike come from different tables or passages of the source.

Columns and labels:
[1] = target: T1, GST-VRK2A (Homo sapiens, UniProt Q86Y07); experiment: In vitro kinase assay, GST-VRK2A autophosphorylation; format: biochemical; conditions: for IC50: read-out: IC50 (µM) GST-VRK2A Auto-phosphorylation
T1 construct: a full-length protein of 508 aminoacids (known as VRK2 and VRK2A); made in house; host or cells: E. coli BL21

[2] = target: T2, GST-VRK1 (Homo sapiens, UniProt Q99986); experiment: In vitro kinase assay, GST-VRK1 autophosphorylation; format: biochemical; conditions: 5 µM ATP; average of three experiments, ± standard deviation; No inhibition is lack of effect at 100 µM
T2 construct: made in house
T2 sequence (Q99986 1-396): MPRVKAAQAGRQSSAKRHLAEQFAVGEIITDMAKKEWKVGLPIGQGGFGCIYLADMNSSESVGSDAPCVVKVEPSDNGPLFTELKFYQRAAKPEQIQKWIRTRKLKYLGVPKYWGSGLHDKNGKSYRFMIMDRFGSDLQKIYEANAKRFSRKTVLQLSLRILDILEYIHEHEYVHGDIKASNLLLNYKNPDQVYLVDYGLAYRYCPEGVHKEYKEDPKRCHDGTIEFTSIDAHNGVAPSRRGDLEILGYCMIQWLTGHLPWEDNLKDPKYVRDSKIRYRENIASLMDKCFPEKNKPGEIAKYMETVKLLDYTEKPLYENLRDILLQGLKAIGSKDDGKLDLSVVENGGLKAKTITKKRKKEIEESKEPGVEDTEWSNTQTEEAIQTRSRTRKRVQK

[3] = test system: Cdk1/cyclinB; conditions: read-out: Fifty percent inhibition of Cdk1/cyclinB; cited from earlier work
[4] = test system: Cdk1; conditions: Table S1, known target value; no reference given; read-out: Kinase target (IC50) Cdk1; cited from earlier work
[5] = target: T1, GST-VRK2A; experiment: In vitro kinase assay, GST-VRK2A phosphorylation of histone H3; format: biochemical
[6] = target: T2, GST-VRK1; experiment: In vitro kinase assay, GST-VRK1 phosphorylation of histone H3; format: biochemical; conditions: 5 µM ATP; average of three experiments, ± standard deviation; No inhibition is lack of effect at 100 µM
[7] = target: T3, VRK2A (Homo sapiens, UniProt Q86Y07); experiment: In vitro kinase assay, VRK2A kinase activity (autophosphorylation and H3 phosphorylation); format: biochemical
T3 construct: a full-length protein of 508 aminoacids (known as VRK2 and VRK2A); made in house; host or cells: E. coli BL21

[8] = target: T4, human VRK1 (Homo sapiens, UniProt Q99986); experiment: In vitro kinase assay, VRK1 kinase activity (autophosphorylation and H3 phosphorylation); format: biochemical
T4 construct: made in house
T4 sequence (Q99986 1-396): T2 sequence (Q99986 1-396)

[9] = test system: B-RafV600E; conditions: Table S1, known target value; no reference given; read-out: Kinase target (IC50) B-RafV600E; cited from earlier work
[10] = test system: B-Raf; conditions: Table S1, known target value; no reference given; read-out: Kinase target (IC50) B-Raf; cited from earlier work
[11] = test system: JNK; conditions: Table S1, known target value; no reference given; read-out: Kinase target (IC50) JNK; cited from earlier work
[12] = target: Aurora C kinase; conditions: Table S1, known target value; no reference given; cited from earlier work
[13] = target: T5, VRK2B (Homo sapiens, UniProt Q86Y07); experiment: In vitro kinase assay, VRK2B kinase activity; format: biochemical; conditions: inhibitor 100 µM, 5 µM ATP
T5 construct: made in house; host or cells: E. coli BL21

[14] = test system: CDK; conditions: read-out: Kinase target (IC50) CDK; Table S1, known target value; no reference given; cited from earlier work
[15] = test system: GSK-3β; conditions: Table S1, known target value; no reference given; read-out: Kinase target (IC50) GSK3β; cited from earlier work
[16] = inhibitor 100 µM, 5 µM ATP, autophosphorylation and H3 phosphorylation
[17] = 5 µM ATP, average of three experiments, ± standard deviation, No inhibition is lack of effect at 100 µM

T3 sequence (Q86Y07 whole entry): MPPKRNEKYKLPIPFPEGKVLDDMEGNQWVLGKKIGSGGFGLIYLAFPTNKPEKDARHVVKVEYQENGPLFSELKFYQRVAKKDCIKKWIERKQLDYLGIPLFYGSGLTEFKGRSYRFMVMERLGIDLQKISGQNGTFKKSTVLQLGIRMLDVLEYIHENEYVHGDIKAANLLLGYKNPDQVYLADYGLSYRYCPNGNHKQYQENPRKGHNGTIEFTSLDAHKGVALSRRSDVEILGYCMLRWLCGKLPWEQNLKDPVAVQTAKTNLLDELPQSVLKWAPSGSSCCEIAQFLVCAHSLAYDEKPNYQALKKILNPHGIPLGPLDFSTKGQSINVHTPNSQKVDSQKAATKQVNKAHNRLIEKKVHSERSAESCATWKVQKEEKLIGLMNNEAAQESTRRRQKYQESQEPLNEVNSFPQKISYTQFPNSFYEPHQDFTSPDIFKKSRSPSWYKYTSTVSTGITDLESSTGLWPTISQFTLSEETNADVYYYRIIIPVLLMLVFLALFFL
T1 sequence (Q86Y07 whole entry): as above
T5 sequence (Q86Y07 1-397 isoform Q86Y07-2): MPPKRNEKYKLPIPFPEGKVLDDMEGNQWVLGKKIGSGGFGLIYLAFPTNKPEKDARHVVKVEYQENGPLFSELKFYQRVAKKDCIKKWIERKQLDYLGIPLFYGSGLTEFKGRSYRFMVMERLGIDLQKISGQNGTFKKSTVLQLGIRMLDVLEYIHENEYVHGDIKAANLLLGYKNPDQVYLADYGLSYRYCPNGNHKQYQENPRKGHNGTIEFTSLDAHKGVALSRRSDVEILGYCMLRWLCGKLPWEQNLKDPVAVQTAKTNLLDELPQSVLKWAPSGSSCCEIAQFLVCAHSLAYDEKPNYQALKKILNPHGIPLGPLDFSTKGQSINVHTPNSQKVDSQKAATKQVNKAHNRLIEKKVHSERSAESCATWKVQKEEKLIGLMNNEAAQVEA

Row | Compound | IC50 [1] | IC50 (µM) GST-VRK1 Auto- phosphorylation [2] | IC50 [5] | IC50 (µM) GST-VRK1 H3 phosphorylation [6] | Effect on VRK2 (VRK2A) kinase activity at 100 µM inhibitor (in words) [7, 16] | Effect on VRK1 kinase activity at 100 µM inhibitor (in words) [8, 16] | other results
1 | O=C1Nc2ccccc2C1=Cc1c(Cl)[nH]c2ccccc12 [Cdk1 Inhibitor, 3-(2-Chloro-3-indolylmethylene)-1,3-dihydroindol-2-one] | 11.2 ± 1.33 µM | No inhibition | 10.8 ± 1.29 µM | No inhibition | more sensitive | – | IC50 [3]: 5.8 µM; IC50 [4]: 5.8 µM; IC50 ([7]; 5 µM ATP, H3 phosphorylation or autophosphorylation, read-out: Concentration giving fifty percent inhibition of VRK2A activity): 4 µM
2 | OCCn1cc(-c2ccc3c(c2)CCC3=NO)c(-c2ccncc2)n1 [GDC-0879, 5-[1-(2-Hydroxy-ethyl)-3-pyridin-4-yl-1H-pyrazol-4-yl]-indan-1-one oxime] | – | No inhibition | – | No inhibition | None of them was able to induce a significant inhibition | None of them was able to induce a significant inhibition | IC50 [9]: 0.00013 µM
3 | CCCS(=O)(=O)Nc1ccc(F)c(C(=O)c2c[nH]c3ncc(Cl)cc23)c1F [PLX-4720, N-(3-(5-chloro-1H-pyrrolo[2,3-b]pyridine-3-carbonyl)-2,4-difluorophenyl)propane-1-sulfonamide] | – | No inhibition | – | No inhibition | None of them was able to induce a significant inhibition | None of them was able to induce a significant inhibition | IC50 (µM) GST-VRK2A Auto-phosphorylation [1, 17]: No inhibition; IC50 [10]: […]; IC50 (µM) GST-VRK2A H3 phosphorylation [5, 17]: No inhibition
4 | Oc1c2ccccc2c2c3c(cccc13)N=N2 [SP600125, Anthra[1,9-cd]pyrazol-6(2H)-one, 1,9-pyrazoloanthrone] | 27.6 ± 1.09 µM | No inhibition | 11.1 ± 1.21 µM | No inhibition | None of them was able to induce a significant inhibition | None of them was able to induce a significant inhibition | IC50 [11]: 0.04 µM
5 | Cc1cc(Nc2cc(N3CCN(C)CC3)nc(Sc3ccc(NC(=O)C4CC4)cc3)n2)[nH]n1 [VX-680, N-[4-[4-(4-Methylpiperazin-1-yl)-6-(3-methyl-1H-pyrazol-5-ylamino)pyrimidin-2-sulfanyl]phenyl]-cyclopropanecarboxamide] | – | No inhibition | – | No inhibition | without noticeable inhibitory effect | without noticeable inhibitory effect | IC50 [12]: […]; Effect on VRK2B kinase activity at 100 µM inhibitor (in words) [13]: without noticeable inhibitory effect
6 | Indirubin-3’-monoxime | – | – | – | – | – | – | Effect on VRK1 kinase activity at 100 µM inhibitor (in words) [8]: little effect; IC50 [14]: 0.05 to 0.1 µM; Effect on VRK2 (VRK2A) kinase activity at 100 µM inhibitor (in words) [7]: little effect; IC50 [15]: 0.005 to 0.05 µM
